Tests used:
HepG2 liver cancer cells = test: PARP cleavage and caspase-8 activation with TNFα by immunoblotting; format: cell-based; conditions: HepG2 cells, SR11237 1 μM, 1 hr pretreatment
Method: ZR-75-1 cells were treated with TNFα and/or Sulindac (75 μM) or K-80003 (50 μM) for 6 hr and analyzed by immunoblotting.
HepG2 cells cultured in medium with 1% FBS were treated with SR11237 (1 μM) for 1 hr, then TNFα (10 ng/ml) and/or Sulindac (75 μM) for 4 hr, and analyzed by immunoblotting. HepG2 cells transfected with control or RXRα siRNA were treated with TNFα and/or Sulindac and analyzed by immunoblotting.

COX = conditions: Haanen, 2001; cited from earlier work

Row | Structure (SMILES) | suppression of the apoptotic effect of Sulindac/TNFα combination (HepG2 liver cancer cells) | COX-inhibiting activity (COX)
1 | CC1(C)CCC(C)(C)c2cc(C3(c4ccc(C(=O)O)cc4)OCCO3)ccc21 [SR11237] | partially suppressed | –
2 | CC1=C(CC(=O)O)c2cc(F)ccc2/C1=C\c1ccc(S(C)(=O)=O)cc1 [sulindac sulfone] | – | no COX-inhibiting activity
3 | CC1=C(CC(=O)O)c2cc(F)ccc2/C1=C/c1ccc([S+](C)[O-])cc1 (stereo not drawn) [sulindac sulfoxide] | – | no COX-inhibiting activity
